≈ marks a conversion by molar mass, not a printed value. Where two headings read alike, the source gives them in different places.
Assays:
[1] = tested on: human hepatocyte/liver (HepG2; ATCC #HB8065) cells; assay: In vitro cytotoxicity (PrestoBlue cell viability), HepG2; assay type: cell-based
MRSA 880 NR-49120 = assay: MIC against methicillin resistant Staphylococcus aureus (MRSA); details: read-out: MRSA MIC, 880 NR-49120
MRSA ATCC BAA-1556 = assay: as above
M.tb Erdman = assay: Broth microdilution MIC with Alamar blue endpoint (MABA) / OD600; assay type: cell-based, Mycobacterium tuberculosis
MRSA ATCC 43300 = assay: MIC against methicillin resistant Staphylococcus aureus (MRSA); details: read-out: MRSA MIC, ATCC 43300
[2] = tested on: M. Tuberculosis Erdman or H37Rv vs VERO or HepG2 cells; assay: Selectivity Index (mammalian cell IC50 / bacterial MIC); set-up: species or system Mycobacterium tuberculosis
M.tb H37Rv = assay: Broth microdilution MIC with Alamar blue endpoint (MABA) / OD600; assay type: cell-based, Mycobacterium tuberculosis
[3] = tested on: mitochondrial protein synthesis (COX-1/SDH-A ratio) in H9C2 rat heart myoblast cells; assay: Mitochondrial protein synthesis inhibition (MitoBiogenesis in-cell ELISA, COX-1/SDH-A); assay type: cell-based; details: 120 h, five days, read-out: MPS IC50
[4] = tested on: African green monkey kidney (Vero; ATCC # CCL81) cells; assay: In vitro cytotoxicity (PrestoBlue cell viability), Vero; assay type: cell-based
[5] = Liposome loading / encapsulation efficiency (General protocol); details: for Maximum encapsulated drug payload: 0.5 M AS; for loading efficiency at or near the maximum drug load / maximum drug load: DL0 750-1500 g/mol PhL; for maximum drug load: no buffer
[6] = Aqueous solubility (visually clear solutions); assay type: physicochemical; details: aqueous, 1 N HCl and/or water added
Description: Working stocks of the compounds were prepared as follows: to an aliquot of a compound (free base) in a powder form 1-1.5 equivalents of HCl in the form of 1 N aqueous solution was added, and the mixture was vortexed until homogeneity. To the resulting cake or syrup, water was added typically to the final 10 mg/ml, and complete dissolution was observed. In some instances, 0.95 equivalents of HCl were added to the free base form of the drug, and 20 mg/ml stock solution was prepared.
Aqueous solubility of the compounds of the present disclosure is illustrated by the following observations of obtaining visually clear solutions: […]

[7] = tested on: MRSA strain MW-2 (USA 400); assay: Rabbit left-sided aortic valve endocarditis model of MRSA; assay type: in vivo, Staphylococcus aureus (in New Zealand white rabbits); details: for Kidneys, MRSA count / Liver, MRSA count / Lungs, MRSA count / Spleen, MRSA count / Vegetations, MRSA count: rabbits, DAP 2 mg/kg daily for four days alone
[8] = Homo sapiens, HepG2, 72 h, read-out: Cell viability IC50, HepG2
[9] = read-out: MRSA MIC, ATCC BAA-1556
[10] = Mycobacterium tuberculosis, ERDMAN, read-out: Mycobacterium tuberculosis MIC, Erdman
[11] = Mycobacterium tuberculosis, H37RV, read-out: MIC (H37Rv)
[12] = Mycobacterium tuberculosis, H37RV, read-out: Mycobacterium tuberculosis MIC, H37Rv
[13] = Chlorocebus sabaeus, Vero, 72 h, read-out: Cell viability IC50, VERO
[14] = PEG-DSG 0.5 mol%, 1 N TEA-SOS, DL0 500 g/mol PhL
[15] = PEG-DSG 0.5 mol%, […] AS, DL0 250 g/mol PhL
[16] = PEG-DSG 0.5 mol%, […] AS, DL0 500 g/mol PhL
[17] = PEG-DSG 5 mol%, 1 N TEA-SOS, DL0 500 g/mol PhL
[18] = Homo sapiens, HepG2, 72 h; read-out: Cell viability IC50, HepG2
[19] = Mycobacterium tuberculosis, ERDMAN; read-out: Mycobacterium tuberculosis MIC, Erdman
[20] = Mycobacterium tuberculosis, H37RV; as determined in Example 2; read-out: MIC (H37Rv)
[21] = Mycobacterium tuberculosis, H37RV; read-out: Mycobacterium tuberculosis MIC, H37Rv
[22] = Chlorocebus sabaeus, Vero, 72 h; read-out: Cell viability IC50, VERO

Row | SMILES | IC50 [1, 8] [µg/mL] | MIC (MRSA 880 NR-49120) [µg/mL] | MIC (MRSA ATCC BAA-1556; read-out: MRSA MIC) [µg/mL] | MIC (MRSA ATCC BAA-1556; [9]) [µg/mL] | MIC (M.tb Erdman; [10]) [µg/mL] | MIC (MRSA ATCC 43300) [µg/mL] | Selectivity Index (SI) Erd/HepG2 [2] | Selectivity Index (SI) Erd/VERO [2] | MIC (M.tb H37Rv; [12]) [µg/mL] | IC50 [3] [µg/mL] | IC50 [4, 13] [µg/mL] | Maximum encapsulated drug payload ([5]; 0.5 mol% PEG) | maximum drug load ([5]; 1 N TEA-SOS) | IC50 [1, 18] [µg/mL] | MIC (M.tb Erdman; [19]) [µg/mL] | MIC (M.tb H37Rv; [20]) [µg/mL] | MIC (M.tb H37Rv; [21]) [µg/mL] | IC50 [4, 22] [µg/mL] | further results
1 | Cl.Cn1nnc(-c2ccc(-c3ccc(N4C[C@H](CN)OC4=O)cc3F)cn2)n1 [AKG-3] | 21.2 | 50 | > 50 | 50 | 0.125 | 50 | 169.6 | 142.4 | 0.06 | 0.115 | 17.8 | 590 g/mol PhL | 900-930 g/mol PhL | – | – | – | – | – | MIC (M.tb H37Rv; [11]): 0.06 µg/mL; Maximum encapsulated drug payload ([5]; 5 mol% PEG): 600-606 g/mol PhL; loading efficiency at or near the maximum drug load ([5]; 1 N TEA-SOS): at least 97.6%; Drug loading efficiency [5, 14]: 100.8; Drug loading efficiency [5, 15]: 100.4; Drug loading efficiency [5, 16]: 80.3; Drug loading efficiency [5, 17]: 107.4
2 | Cl.NCCn1nnnc1-c1ccc(-c2ccc(N3C[C@H](CO)OC3=O)cc2F)cn1 [AKG-22] | – | 5.55 | – | 1.85 to 5.55 | – | 16.7 | 17.2 | 57.7 | – | 1.18 | – | – | – | 17.2 | 1 | 0.5 | 0.5 | 57.7 | –
3 | CCN(CC)CCCn1nnc(-c2ccc(-c3ccc(N4C[C@H](CNC(C)=O)OC4=O)cc3F)cn2)n1 [AKG-40] | – | 1.85 (≈ 3.62 µM) | – | 1.85 (≈ 3.62 µM) | – | 5.55 (≈ 10.9 µM) | 113.0 | >250.0 | – | 0.064 (≈ 0.125 µM) | – | – | – | 113 (≈ 221 µM) | 1 (≈ 1.96 µM) | 0.5 (≈ 0.979 µM) | 0.5 (≈ 0.979 µM) | > 250 | Mycobacterium tuberculosis MIC, Erdman (M.tb Erdman): 1 to 2 µg/mL; Mycobacterium tuberculosis MIC, H37Rv (M.tb H37Rv): 0.5 µg/mL
4 | Cl.Cl.NCCn1nnc(-c2ccc(-c3ccc(N4C[C@H](CN)OC4=O)cc3F)cn2)n1 [AKG-29] | 74.4 | 50 | > 50 | 50 | 0.25 | > 50 | 297.6 | 439.6 | 0.125 | 4.11 | 110 | – | – | – | – | – | – | – | MIC (M.tb H37Rv; [11]): 0.125 µg/mL
5 | CCN(CC)CCn1nnc(-c2ccc(-c3ccc(N4C[C@H](CNC(C)=O)OC4=O)cc3F)cn2)n1 [AKG-39] | – | 1.85 (≈ 3.73 µM) | – | 1.85 (≈ 3.73 µM) | – | 1.85 (≈ 3.73 µM) | 140.0 | 402.0 | – | 0.06 (≈ 0.121 µM) | – | – | – | 70 (≈ 141 µM) | 0.5 (≈ 1.01 µM) | 0.5 (≈ 1.01 µM) | 0.5 (≈ 1.01 µM) | 201 (≈ 405 µM) | MIC (M.tb Erdman; Mycobacterium tuberculosis; M. tuberculosis Erdman / H37Rv, strains not separated; read-out: MIC): 0.5 µg/mL (≈ 1.01 µM)
6 | CN(C)CCn1nnc(-c2ccc(-c3ccc(N4C[C@H](CO)OC4=O)cc3F)cn2)n1 [AKG-16] | – | 1.85 (≈ 4.33 µM) | – | 1.85 (≈ 4.33 µM) | – | 1.85 (≈ 4.33 µM) | – | – | – | 0.244 (≈ 0.571 µM) | – | 668-675 g/mol PhL | 938-951 g/mol PhL | 91 (≈ 213 µM) | 0.25 (≈ 0.585 µM) | 0.25 (≈ 0.585 µM) | 0.25 (≈ 0.585 µM) | 97 (≈ 227 µM) | Concentration % (w/w) of free base (visually clear solution) [6]: 30.0 % (w/w); Maximum encapsulated drug payload ([5]; 5 mol% PEG): 614-619 g/mol PhL
7 | CN(C)CCCC(=O)OC[C@H]1CN(c2ccc(-c3ccc(-c4nnn(C)n4)nc3)c(F)c2)C(=O)O1 [AKG-5] | – | – | – | – | – | – | 30.8 | – | – | – | – | 627 g/mol PhL | 982-1197 g/mol PhL | 30.8 (≈ 63.7 µM) | 1 (≈ 2.07 µM) | – | 1 (≈ 2.07 µM) | 32.5 (≈ 67.2 µM) | loading efficiency at or near the maximum drug load ([5]; 1 N TEA-SOS): ≥ 96.0%; stability during liposome loading (HPLC) ([5]; Example 12): Degradation of AKG-5 during the liposome loading was detected; Drug loading efficiency [5, 14]: 101.3; Drug loading efficiency [5, 15]: 98.5; Drug loading efficiency [5, 16]: 97.7; Drug loading efficiency [5, 17]: 99.3
8 | CCCCCCCCCC(=O)N[C@@H](Cc1c[nH]c2ccccc12)C(=O)N[C@H](CC(N)=O)C(=O)N[C@@H](CC(=O)O)C(=O)N[C@@H]1C(=O)NCC(=O)N[C@@H](CCCN)C(=O)N[C@@H](CC(=O)O)C(=O)N[C@H](C)C(=O)N[C@@H](CC(=O)O)C(=O)NCC(=O)N[C@H](CO)C(=O)N[C@@H]([C@H](C)CC(=O)O)C(=O)N[C@@H](CC(=O)c2ccccc2N)C(=O)O[C@@H]1C [Daptomycin] | – | – | – | – | – | – | – | – | – | – | – | – | – | – | – | – | – | – | efficacy on day 6 post inoculation ([7]; DAP 2 mg/kg daily x4 alone or plus a single dose of Ls-AKG38 40 mg/kg): no significant efficacy; Kidneys, MRSA count ([7]; (relapse)): 8.11 ± 0.49 log10 cfu/gm of tissue; Liver, MRSA count ([7]; (relapse)): 7.65 ± 0.26 log10 cfu/gm of tissue; Lungs, MRSA count ([7]; (relapse)): 8.00 ± 0.66 log10 cfu/gm of tissue; Spleen, MRSA count ([7]; (relapse)): 7.91 ± 0.54 log10 cfu/gm of tissue; Vegetations, MRSA count ([7]; (relapse)): 9.18 ± 0.22 log10 cfu/gm of tissue; Kidneys, MRSA count ([7]; day 6): 6.90 ± 0.61 log10 cfu/gm of tissue; Liver, MRSA count ([7]; day 6): 6.77 ± 0.90 log10 cfu/gm of tissue; Lungs, MRSA count ([7]; day 6): 6.37 ± 0.64 log10 cfu/gm of tissue; Spleen, MRSA count ([7]; day 6): 7.43 ± 0.38 log10 cfu/gm of tissue; Vegetations, MRSA count ([7]; day 6): 8.13 ± 0.17 log10 cfu/gm of tissue
9 | CN(C)CCCn1nnc(-c2ccc(-c3ccc(N4C[C@H](CN)OC4=O)cc3F)cn2)n1 [AKG-30] | 18.9 (≈ 42.9 µM) | > 50 | > 50 | > 50 | 0.125 (≈ 0.284 µM) | > 50 | 151.2 | 884.0 | 0.125 (≈ 0.284 µM) | – | 110 (≈ 251 µM) | – | – | – | – | – | – | – | –
10 | CCN(CC)CCCNc1ccc(-c2ccc(N3C[C@H](CO)OC3=O)cc2F)cn1 [AKG-15] | – | – | – | – | – | – | <4.5 | <19.5 | – | – | – | – | – | 35.6 (≈ 85.5 µM) | > 8 | – | > 8 | 156 (≈ 375 µM) | –
